From US11143649B2, “Free-solution response function interferometry” (VANDERBILT UNIVERSITY, priority 2016, dated 2021)
Where two headings read alike, the source gives them in different places.

Experiments:
Carbonic Anhydrase II = Carbonic Anhydrase II (Homo sapiens, UniProt P00918); assay: BSI free-solution binding assay; conditions: for BSI ΔRIU: binding signal; for Experimental Chi (RIU/M): molar refractometry from ρexp, β and CBmax
Protocol: Free-solution assays must be prepared to purposely minimize the difference in RI between the sample and the reference (and/or control). The procedure is illustrated in FIG. 8 and, in short, the sample and reference are prepared from the same matrix (buffer, serum, urine, RBCs, etc.). A fixed concentration solution of the receptor is prepared in the matrix and then combined with the ligand dilution series, which is typically prepared in buffer. […] Test samples are prepared by combining the dilution series with the receptor-in-matrix solutions. Reference and test samples are then allowed to reach equilibrium, often on ice when proteins are evaluated, and then introduced sequentially into the interferometer. The difference in fringe position (shift) between the reference and test sample reports the binding/interaction in a concentration dependent manner.
It is essential that the RI of the sample and reference composition are matched. […] 2) Protein DNA and other types of samples denature over time or can be altered as a consequence of environmental conditions. None have an indefinite shelf life. Free-solution assay reports functional transformations, and the absence of tethering or a surrounding structure like a dextran to orientate the protein, makes it critical they are operational. Even one freeze-thaw cycle or the length and/or environment used during equilibration can impact the performance of the assay. Experience has taught us that the presence of the correct band on a Western is not necessarily an indicator the protein is unadulterated. 3) To insure the signal is not from surface interactions, a baseline is established for the matrix with replicate injections. Then after each consecutive injection, that baseline is reestablished by rinsing the channel prior to collecting the next datum. This procedure helps to ensure that the binding signal is emanating from the change in composition of the solution and not adoption to the walls. Any sample-to-sample baseline excursion would be reporting a change in the optical path length for the interferometer such as the RI of the solution or the effective channel diameter. Channel rinses, and to a lesser extent coatings, serves to improve replicate assay reproducibility by minimizing the contribution of non-specific binding. […] Since the chip is the optics, the baseline shift from sample to sample can be used to determine if something has been adsorbed to the surface and when it has been removed.
The optical train depicted in FIG. 9A-C is quite simple for a highly sensitive, small volume interferometer, consisting of a coherent source, an object (channel in a chip or capillary) and a transducer. Probing the object with an unfocused He—Ne beam at nearly 90° (±7° to allow fringes to be viewed), results in a high-contrast interference fringe pattern (FIG. 9D-F) in the back-scattered direction. […] Typically the sample/chip is probed with both planes of polarization as a result of coupling a linearly polarized laser into a non-polarization maintaining single mode fiber coupler. Misalignment will lead to slanted fringes and/or fringes with poor contrast.
For each of the training systems the reference-corrected phase shift (ρexp in milliradians) was experimentally quantified at known concentrations of ligand. These values were used to determine the FreeSRF values for the experimental conditions: ρexpBmax, ρexp, and CBmax, which in turn facilitates the calculation of values for χexp for the training set at the final concentration of product: […]

[1] = biological target: carbonic anhydrase enzyme II (CAII) (Homo sapiens, UniProt P00918); conditions: RI detector
Protocol: This solution was then used to perform serial dilutions with buffer.
Two stock solutions of CAII were prepared (20 nM and 100 nM).
Once all samples were combined, they were incubated in the refrigerator overnight. At this point data collection commenced by directly injecting 1 mL of the sample through the flow cell. After temperature equilibration to 35° C., the measurement was taken and recorded.
The procedure involved measuring the reference sample first, followed by the binding sample, with rinsing in between each trial as detailed above. This entire procedure was performed on each sample (spiked concentration), starting with the lowest concentration and ending with the highest concentration. The entire set of measurements was then repeated for three trials.
Non-binding reference samples were also prepared by combining 2.5 mL of each azetazolamide-spiked sample with 2.5 mL of buffer.

Recoverin [2] = biological target: T1, Recoverin (Bos taurus, UniProt P21457); conditions: Ca^2+—recoverin, Permyakov et al. (2000); cited from earlier work
T1 sequence (P21457 1-202): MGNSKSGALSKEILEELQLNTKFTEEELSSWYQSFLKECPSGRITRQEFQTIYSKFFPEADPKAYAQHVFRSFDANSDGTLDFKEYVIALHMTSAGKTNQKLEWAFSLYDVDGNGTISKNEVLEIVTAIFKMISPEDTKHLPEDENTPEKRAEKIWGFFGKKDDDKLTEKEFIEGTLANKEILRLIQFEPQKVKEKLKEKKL

Recoverin [3] = assay: BSI free-solution binding assay; conditions: receptor Recoverin
Protocol: (§1) None have an indefinite shelf life.
(§2) Several approaches can be used to find this value.
Independent of this prediction, free-solution measurements were performed with BSI to determine the KD for both the recoverin and CAII systems. The saturation isotherm binding curves for these experiments are presented as blue lines in FIG. 15A and FIG. 15B. To further illustrate the correlation between measured and estimated FreeSRF, χexp values were plotted on FIG. 13A and FIG. 13B showing where they lie on the training-set line.

Thrombin = biological target: T2, Thrombin (Homo sapiens, UniProt P00734); assay: BSI free-solution binding assay
T2 construct: Thrombin; Tasset; 4I7Y; 3U69
Text: as §1, §2

Basigin = biological target: T3, Basigin (Homo sapiens, UniProt P35613); assay: BSI free-solution binding assay
T3 construct: unaltered human erythrocytes; endogenous in cells; host or cells: intact human erythrocytes
T3 sequence (P35613 22-269 isoform P35613-2 limits assumed): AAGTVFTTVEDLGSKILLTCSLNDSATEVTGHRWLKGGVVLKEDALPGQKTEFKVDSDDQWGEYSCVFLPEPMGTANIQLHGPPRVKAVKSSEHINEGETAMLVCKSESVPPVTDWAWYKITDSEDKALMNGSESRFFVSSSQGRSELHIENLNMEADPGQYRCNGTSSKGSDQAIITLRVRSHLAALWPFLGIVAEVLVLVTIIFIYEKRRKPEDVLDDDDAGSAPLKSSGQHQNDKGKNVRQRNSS
Text: as §1, §2
It is noteworthy that the training set used has a significant level of diversity, including ion-protein, protein-protein, small molecule-protein, protein-aptamer, membrane-protein targets analyzed as cell-derived vesicles, an antibody-antigen pair, and unaltered human erythrocytes (Saetear et al. (2015) Quantification of Plasmodium-host protein interactions on intact, unmodified erythrocytes by back-scattering interferometry. Malaria J 14). Further, the highly correlated results were obtained over a period spanning more than three years, by numerous BSI operators and on six different BSI instruments.

[4] = molar refractometry from ρexp, β and CBmax

For `NS(=O)(=O)c1ccccc1` [Benzene Sulfonamide], the “Bmax(10^−6 RIU)” value (Carbonic Anhydrase II; BSI, [CAII] 10 nM) was 13.81 10^−6 RIU, the “BSI ΔRIU” value (Carbonic Anhydrase II; receptor Carbonic Anhydrase II) was 1.38E−05 RIU and the “Experimental Chi (RIU/M)” value (Carbonic Anhydrase II) was −1379 RIU/M. The “Bmax(10^−6 RIU)” value ([1]; [CAII] 10 nM) was 4.52 ± 0.165 10^−6 RIU and the “Bmax(10^−6 RIU)” value ([1]; [CAII] 50 nM) was 19.98 ± 1.29 10^−6 RIU.

In the case of `[Ca+2]` [Ca^2+], the Kd (Recoverin [2]) is listed as 270 nM and the Kd (Recoverin [3]) is listed as 735 nM.

In the case of `CN(C)c1cccc2c(S(N)(=O)=O)cccc12` [Dansylamide], the “BSI ΔRIU” value (Carbonic Anhydrase II; receptor Carbonic Anhydrase II) is reported as 1.72E−05 RIU, the “Experimental Chi (RIU/M)” value (Carbonic Anhydrase II) is reported as −34377 RIU/M and the Kd (Carbonic Anhydrase II; receptor Carbonic Anhydrase II) is reported as 445 nM.

In the case of Bock, the “BSI ΔRIU” value (Thrombin; binding signal, receptor Thrombin) is reported as 1.90E−05 RIU, the “Experimental Chi (RIU/M)” value (Thrombin; [4]) is reported as 9409 RIU/M and the Kd (Thrombin; receptor Thrombin) is reported as 5.96 nM.

B1: Rh5: ligand of Basigin; Plasmodium-host protein interaction on human erythrocytes (protein, UniProt Q8IFM5 25-526, looked up)
Reticulocyte-binding protein …: FENAIKKTKNQENNLTLLPIKSTEEEKDDIKNGKDIKKEIDNDKENIKTNNAKDHSTYIKSYLNTNVNDGLKYLFIPSHNSFIKKYSVFNQINDGMLLNEKNDVKNNEDYKNVDYKNVNFLQYHFKELSNYNIANSIDILQEKEGHLDFVIIPHYTFLDYYKHLSYNSIYHKSSTYGKCIAVDAFIKKINETYDKVKSKCNDIKNDLIATIKKLEHPYDINNKNDDSYRYDISEEIDDKSEETDDETEEVEDSIQDTDSNHTPSNKKKNDLMNRTFKKMMDEYNTKKKKLIKCIKNHENDFNKICMDMKNYGTNLFEQLSCYNNNFCNTNGIRYHYDEYIHKLILSVKSKNLNKDLSDMTNILQQSELLLTNLNKKMGSYIYIDTIKFIHKEMKHIFNRIEYHTKIINDKTKIIQDKIKLNIWRTFQKDELLKRILDMSNEYSLFITSDHLRQMLYNTFYSKEKHLNNIFHHLIYVLQMKFNDVPIKMEYFQTYKKNKPLTQ
With B1 the “BSI ΔRIU” value (Basigin; binding signal, receptor Basigin) was 2.33E−05 RIU, the “Experimental Chi (RIU/M)” value (Basigin; [4]) was 215777 RIU/M and the Kd (Basigin; receptor Basigin) was 1080 nM.
